Experimental data taken from PubChem BioAssay AID272 (DTP/NCI, 2004).
Values joined by “and” are separate entries in the source; they are usually repeats but may differ in a detail not shown here. Identical values can stand only once. Results filed as inconclusive are left out.

System: Lewis lung carcinoma i.m., BDF1 mice, T/C %
Assay: NCI In Vivo Anticancer Drug Screen. Data for tumor model Lewis Lung Carcinoma (intramuscular) in B6D2F1 (BDF1) mice
Summary of the method: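 Mice carrying transplantable tumours received test compound. Survival or tumour size was recorded and expressed as the treated-group value (T) divided by the vehicle-treated control-group value (C).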

## CC(CN1CC(=O)NC(=O)C1)N1CC(=O)NC(=O)C1 (stereo not given)
endpoint: mean tumor weight, dose: 6.25 mg/kg/injection, schedule: Q01DX005 (ip), vehicle: Klucel (hydroxypropylcellulose) (HPC), higher = larger tumour
  T/C: 61 % of control
endpoint: mean tumor weight, dose: 6.25 mg/kg/injection, schedule: Q01DX009 (ip), vehicle: Klucel (hydroxypropylcellulose) (HPC), higher = larger tumour
  T/C: 49 % of control
endpoint: mean tumor weight, dose: 6.25 mg/kg/injection, schedule: Q01DX011 (ip), vehicle: Klucel (hydroxypropylcellulose) (HPC), higher = larger tumour
  T/C: 73 % of control
endpoint: mean tumor weight, dose: 6.25 mg/kg/injection, schedule: Q01DX017 (ip), vehicle: Klucel (hydroxypropylcellulose) (HPC), higher = larger tumour
  T/C: 57 % of control
endpoint: mean tumor weight, dose: 12.5 mg/kg/injection, schedule: Q01DX005 (ip), vehicle: Klucel (hydroxypropylcellulose) (HPC), higher = larger tumour
  T/C: 62 % of control
endpoint: mean tumor weight, dose: 12.5 mg/kg/injection, schedule: Q01DX009 (ip), vehicle: Klucel (hydroxypropylcellulose) (HPC), higher = larger tumour
  T/C: 59 % of control
endpoint: mean tumor weight, dose: 12.5 mg/kg/injection, schedule: Q01DX011 (ip), vehicle: Klucel (hydroxypropylcellulose) (HPC), higher = larger tumour
  T/C: 52 % of control
endpoint: mean tumor weight, dose: 12.5 mg/kg/injection, schedule: Q01DX011 (ip), vehicle: steriod suspending solution, higher = larger tumour
  T/C: 83 % of control and 85 % of control
endpoint: mean tumor weight, dose: 12.5 mg/kg/injection, schedule: Q01DX017 (ip), vehicle: Klucel (hydroxypropylcellulose) (HPC), higher = larger tumour
  T/C: 49 % of control
endpoint: mean tumor weight, dose: 25.0 mg/kg/injection, schedule: Q01DX005 (ip), vehicle: Klucel (hydroxypropylcellulose) (HPC), higher = larger tumour
  T/C: 50 % of control
endpoint: mean tumor weight, dose: 25.0 mg/kg/injection, schedule: Q01DX009 (ip), vehicle: Klucel (hydroxypropylcellulose) (HPC), higher = larger tumour
  T/C: 26 % of control
endpoint: mean tumor weight, dose: 25.0 mg/kg/injection, schedule: Q01DX011 (ip), vehicle: Klucel (hydroxypropylcellulose) (HPC), higher = larger tumour
  T/C: 39 % of control
endpoint: mean tumor weight, dose: 25.0 mg/kg/injection, schedule: Q01DX017 (ip), vehicle: Klucel (hydroxypropylcellulose) (HPC), higher = larger tumour
  T/C: 44 % of control
endpoint: mean tumor weight, dose: 25.0 mg/kg/injection, schedule: Q04DX003 (ip), vehicle: Klucel (hydroxypropylcellulose) (HPC), higher = larger tumour
  T/C: 99 % of control
endpoint: mean tumor weight, dose: 25.0 mg/kg/injection, schedule: Q04DX005 (ip), vehicle: Klucel (hydroxypropylcellulose) (HPC), higher = larger tumour
  T/C: 104 % of control
endpoint: mean tumor weight, dose: 50.0 mg/kg/injection, schedule: Q01DX005 (ip), vehicle: Klucel (hydroxypropylcellulose) (HPC), higher = larger tumour
  T/C: 49 % of control
endpoint: mean tumor weight, dose: 50.0 mg/kg/injection, schedule: Q01DX009 (ip), vehicle: Klucel (hydroxypropylcellulose) (HPC), higher = larger tumour
  T/C: 32 % of control
endpoint: mean tumor weight, dose: 50.0 mg/kg/injection, schedule: Q01DX011 (ip), vehicle: Klucel (hydroxypropylcellulose) (HPC), higher = larger tumour
  T/C: 14 % of control
endpoint: mean tumor weight, dose: 50.0 mg/kg/injection, schedule: Q04DX003 (ip), vehicle: Klucel (hydroxypropylcellulose) (HPC), higher = larger tumour
  T/C: 80 % of control
endpoint: mean tumor weight, dose: 50.0 mg/kg/injection, schedule: Q04DX005 (ip), vehicle: Klucel (hydroxypropylcellulose) (HPC), higher = larger tumour
  T/C: 85 % of control
endpoint: mean tumor weight, dose: 100.0 mg/kg/injection, schedule: Q01DX005 (ip), vehicle: Klucel (hydroxypropylcellulose) (HPC), higher = larger tumour
  T/C: 21 % of control
endpoint: mean tumor weight, dose: 100.0 mg/kg/injection, schedule: Q04DX003 (ip), vehicle: Klucel (hydroxypropylcellulose) (HPC), higher = larger tumour
  T/C: 70 % of control and 80 % of control
endpoint: mean tumor weight, dose: 100.0 mg/kg/injection, schedule: Q04DX005 (ip), vehicle: Klucel (hydroxypropylcellulose) (HPC), higher = larger tumour
  T/C: 78 % of control
endpoint: mean tumor weight, dose: 200.0 mg/kg/injection, schedule: Q04DX003 (ip), vehicle: Klucel (hydroxypropylcellulose) (HPC), higher = larger tumour
  T/C: 50 % of control and 58 % of control
endpoint: mean tumor weight, dose: 200.0 mg/kg/injection, schedule: Q04DX005 (ip), vehicle: Klucel (hydroxypropylcellulose) (HPC), higher = larger tumour
  T/C: 56 % of control
endpoint: mean tumor weight, dose: 400.0 mg/kg/injection, schedule: Q04DX003 (ip), vehicle: Klucel (hydroxypropylcellulose) (HPC), higher = larger tumour
  T/C: 6 % of control
endpoint: mean tumor weight, dose: 400.0 mg/kg/injection, schedule: Q04DX005 (ip), vehicle: Klucel (hydroxypropylcellulose) (HPC), higher = larger tumour
  T/C: 7 % of control
endpoint: median survival time, dose: 6.25 mg/kg/injection, schedule: Q01DX005 (ip), vehicle: Klucel (hydroxypropylcellulose) (HPC), higher = longer survival
  T/C: 111 % of control
endpoint: median survival time, dose: 6.25 mg/kg/injection, schedule: Q01DX009 (ip), vehicle: Klucel (hydroxypropylcellulose) (HPC), higher = longer survival
  T/C: 105 % of control
endpoint: median survival time, dose: 6.25 mg/kg/injection, schedule: Q01DX011 (ip), vehicle: Klucel (hydroxypropylcellulose) (HPC), higher = longer survival
  T/C: 117 % of control
endpoint: median survival time, dose: 6.25 mg/kg/injection, schedule: Q01DX017 (ip), vehicle: Klucel (hydroxypropylcellulose) (HPC), higher = longer survival
  T/C: 113 % of control
endpoint: median survival time, dose: 12.5 mg/kg/injection, schedule: Q01DX005 (ip), vehicle: Klucel (hydroxypropylcellulose) (HPC), higher = longer survival
  T/C: 96 % of control
endpoint: median survival time, dose: 12.5 mg/kg/injection, schedule: Q01DX009 (ip), vehicle: Klucel (hydroxypropylcellulose) (HPC), higher = longer survival
  T/C: 100 % of control
endpoint: median survival time, dose: 12.5 mg/kg/injection, schedule: Q01DX011 (ip), vehicle: Klucel (hydroxypropylcellulose) (HPC), higher = longer survival
  T/C: 92 % of control
endpoint: median survival time, dose: 12.5 mg/kg/injection, schedule: Q01DX017 (ip), vehicle: Klucel (hydroxypropylcellulose) (HPC), higher = longer survival
  T/C: 86 % of control
endpoint: median survival time, dose: 15.0 mg/kg/injection, schedule: Q01DX011 (ip), vehicle: carboxymethylcellulose (CMC), higher = longer survival
  T/C: 100 % of control
endpoint: median survival time, dose: 25.0 mg/kg/injection, schedule: Q01DX005 (ip), vehicle: Klucel (hydroxypropylcellulose) (HPC), higher = longer survival
  T/C: 94 % of control
endpoint: median survival time, dose: 25.0 mg/kg/injection, schedule: Q01DX009 (ip), vehicle: Klucel (hydroxypropylcellulose) (HPC), higher = longer survival
  T/C: 111 % of control
endpoint: median survival time, dose: 25.0 mg/kg/injection, schedule: Q01DX011 (ip), vehicle: Klucel (hydroxypropylcellulose) (HPC), higher = longer survival
  T/C: 98 % of control
endpoint: median survival time, dose: 25.0 mg/kg/injection, schedule: Q04DX003 (ip), vehicle: Klucel (hydroxypropylcellulose) (HPC), higher = longer survival
  T/C: 98 % of control
endpoint: median survival time, dose: 25.0 mg/kg/injection, schedule: Q04DX005 (ip), vehicle: Klucel (hydroxypropylcellulose) (HPC), higher = longer survival
  T/C: 103 % of control
endpoint: median survival time, dose: 30.0 mg/kg/injection, schedule: Q01DX011 (ip), vehicle: carboxymethylcellulose (CMC), higher = longer survival
  T/C: 105 % of control
endpoint: median survival time, dose: 50.0 mg/kg/injection, schedule: Q01DX005 (ip), vehicle: Klucel (hydroxypropylcellulose) (HPC), higher = longer survival
  T/C: 105 % of control
endpoint: median survival time, dose: 50.0 mg/kg/injection, schedule: Q01DX009 (ip), vehicle: Klucel (hydroxypropylcellulose) (HPC), higher = longer survival
  T/C: 94 % of control
endpoint: median survival time, dose: 50.0 mg/kg/injection, schedule: Q01DX011 (ip), vehicle: Klucel (hydroxypropylcellulose) (HPC), higher = longer survival
  T/C: 113 % of control
endpoint: median survival time, dose: 50.0 mg/kg/injection, schedule: Q04DX003 (ip), vehicle: Klucel (hydroxypropylcellulose) (HPC), higher = longer survival
  T/C: 96 % of control
endpoint: median survival time, dose: 50.0 mg/kg/injection, schedule: Q04DX005 (ip), vehicle: Klucel (hydroxypropylcellulose) (HPC), higher = longer survival
  T/C: 100 % of control
endpoint: median survival time, dose: 100.0 mg/kg/injection, schedule: Q01DX001 (ip), vehicle: other, higher = longer survival
  T/C: 89 % of control
endpoint: median survival time, dose: 100.0 mg/kg/injection, schedule: Q01DX001 (ip), vehicle: steriod suspending solution, higher = longer survival
  T/C: 93 % of control
endpoint: median survival time, dose: 100.0 mg/kg/injection, schedule: Q01DX005 (ip), vehicle: Klucel (hydroxypropylcellulose) (HPC), higher = longer survival
  T/C: 119 % of control
endpoint: median survival time, dose: 100.0 mg/kg/injection, schedule: Q04DX003 (ip), vehicle: Klucel (hydroxypropylcellulose) (HPC), higher = longer survival
  T/C: 90 % of control and 108 % of control (2×)
endpoint: median survival time, dose: 100.0 mg/kg/injection, schedule: Q04DX005 (ip), vehicle: Klucel (hydroxypropylcellulose) (HPC), higher = longer survival
  T/C: 101 % of control
endpoint: median survival time, dose: 200.0 mg/kg/injection, schedule: Q01DX001 (ip), vehicle: other, higher = longer survival
  T/C: 86 % of control
endpoint: median survival time, dose: 200.0 mg/kg/injection, schedule: Q01DX001 (ip), vehicle: steriod suspending solution, higher = longer survival
  T/C: 93 % of control
endpoint: median survival time, dose: 200.0 mg/kg/injection, schedule: Q04DX003 (ip), vehicle: Klucel (hydroxypropylcellulose) (HPC), higher = longer survival
  T/C: 111 % of control and 115 % of control and 117 % of control
endpoint: median survival time, dose: 200.0 mg/kg/injection, schedule: Q04DX005 (ip), vehicle: Klucel (hydroxypropylcellulose) (HPC), higher = longer survival
  T/C: 115 % of control
endpoint: median survival time, dose: 400.0 mg/kg/injection, schedule: Q01DX001 (ip), vehicle: other, higher = longer survival
  T/C: 76 % of control
endpoint: median survival time, dose: 400.0 mg/kg/injection, schedule: Q04DX003 (ip), vehicle: Klucel (hydroxypropylcellulose) (HPC), higher = longer survival
  T/C: 123 % of control
endpoint: median survival time, dose: 800.0 mg/kg/injection, schedule: Q01DX001 (ip), vehicle: other, higher = longer survival
  T/C: 78 % of control
endpoint: median survival time, dose: 800.0 mg/kg/injection, schedule: Q01DX001 (ip), vehicle: steriod suspending solution, higher = longer survival
  T/C: 87 % of control
endpoint: median survival time, dose: 800.0 mg/kg/injection, schedule: Q04DX003 (ip), vehicle: Klucel (hydroxypropylcellulose) (HPC), higher = longer survival
  T/C: 29 % of control

## CCN1/C(=C/C(C)=C/c2sc3ccccc3[n+]2CC)Sc2ccccc21
endpoint: mean tumor weight (est.), dose: 50.0 micrograms/kg/injection, schedule: Q01DX011 (ip), vehicle: saline with Tween-80, higher = larger tumour
  T/C: 88 % of control
endpoint: mean tumor weight (est.), dose: 100.0 micrograms/kg/injection, schedule: Q01DX011 (ip), vehicle: saline with Tween-80, higher = larger tumour
  T/C: 74 % of control
endpoint: median survival time, dose: 50.0 micrograms/kg/injection, schedule: Q01DX011 (ip), vehicle: saline with Tween-80, higher = longer survival
  T/C: 91 % of control
endpoint: median survival time, dose: 100.0 micrograms/kg/injection, schedule: Q01DX011 (ip), vehicle: saline with Tween-80, higher = longer survival
  T/C: 87 % of control

## Nc1ccn(C2OC(COP(=O)(O)O)C(O)C2O)c(=O)n1 (stereo not given)
endpoint: mean tumor weight, dose: 19.6 mg/kg/injection, schedule: Q01DX011 (ip), vehicle: saline, higher = larger tumour
  T/C: 68 % of control
endpoint: median survival time, dose: 19.6 mg/kg/injection, schedule: Q01DX011 (ip), vehicle: saline, higher = longer survival
  T/C: 94 % of control and 96 % of control
endpoint: median survival time, dose: 32.6 mg/kg/injection, schedule: Q01DX011 (ip), vehicle: saline, higher = longer survival
  T/C: 43 % of control
endpoint: median survival time, dose: 54.0 mg/kg/injection, schedule: Q01DX011 (ip), vehicle: saline, higher = longer survival
  T/C: 42 % of control
endpoint: median survival time, dose: 90.0 mg/kg/injection, schedule: Q01DX011 (ip), vehicle: saline, higher = longer survival
  T/C: 39 % of control
